According to US8519110B2, “mRNA cap analogs” (Board of Supervisors of Louisiana State University And …, priority 2008, dated 2013):

Experiments:
Human DcpS = molecular target: T1, Human DcpS (Homo sapiens, UniProt Q96C86); assay: Assay of susceptibility to DcpS (RP HPLC); format: biochemical
T1 construct: made in house; host or cells: Escherichia coli
T1 sequence (Q96C86 1-337): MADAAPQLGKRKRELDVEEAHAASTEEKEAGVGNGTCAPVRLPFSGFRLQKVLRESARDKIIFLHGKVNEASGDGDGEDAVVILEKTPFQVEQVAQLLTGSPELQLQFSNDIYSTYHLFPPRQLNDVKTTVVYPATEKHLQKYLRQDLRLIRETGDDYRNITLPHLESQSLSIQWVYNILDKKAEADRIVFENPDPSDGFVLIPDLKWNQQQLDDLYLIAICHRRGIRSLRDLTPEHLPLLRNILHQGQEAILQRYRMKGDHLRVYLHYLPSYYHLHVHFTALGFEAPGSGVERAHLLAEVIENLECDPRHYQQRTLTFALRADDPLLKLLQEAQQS
How it was run: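 E. coli-expressed human DcpS reacted with 40 μM cap analog at 30° C in 50 mM Tris-HCl pH 7.9, 20 mM MgCl2, 60 mM (NH4)2SO4. Samples taken at 10, 30, 60 and 120 min, heat-inactivated, and analysed by RP HPLC (methanol gradient in 0.1 M KH2PO4 pH 6.0).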

[1] = Chemical stability in solution and on storage; format: physicochemical
Protocol: FIG. 5 depicts the synthesis of m2^7,2′-OGppSepG. The selenophosphate (PSeO3^−3) was prepared by a modification of the method described in R. Glass et al., “Selenophosphate,” Meth. Enzymol., vol. 252, pp. 309-315 (1995). Trimethylsilyl phosphite was treated with selenium in pyridine to give trimethylsilyl selenophosphate, which was then desilylated by methanol in the presence of triethylamine to give the selenophosphate triethylammonium salt. This compound was coupled with the imidazolide derivative of 7,2′-O-dimethylguanosine 5′-monophosphate (m2^7,2′-OGMP-Im) to give 7,2′-O-dimethylguanosine 5′-O-(2-selenodiphosphate) (m2^7,2′-OGDPβSe). […] The reaction was very rapid; essentially 100% conversion of m2^7,2′-OGMP-Im into m2^7,2′-OGDPβSe was observed by RP HPLC after 15 min. […] Thus, care was taken to maintain the pH at 7 or above during purification of m2^7,2′-OGDPβSe, which allowed the product to be isolated with 80% yield after ion-exchange chromatography. The m2^7,2′-OGDPβSe was then coupled with the imidazolide derivative of GMP in the presence of excess ZnCl2. Two peaks were observed by RP HPLC, corresponding to two m2^7,2′-OGppSepG diastereomers, which were designated D1 and D2 according to their elution order. However, the coupling proceeded slowly, and complete disappearance of m2^7,2′-OGDPβSe took about two days. The extended reaction time allowed partial hydrolysis of m2^7,2′-OGDPβSe to m2^7,2′-OGMP, and only a moderate reaction yield (40% conversion by HPLC, 25% isolated). The diastereomeric mixture of m2^7,2′-OGppSepG after isolation by ion-exchange chromatography was successfully resolved into pure diastereomers by RP HPLC. The products were characterized by mass spectrometry, ^1H NMR, and ^31P NMR to confirm structures and homogeneity.

[2] = system: rabbit reticulocyte lysate system; assay: In vitro translation efficiency of capped luciferase mRNA, method I transcripts; format: biochemical; conditions: for Translation efficiency in comparison with m^7GpppG-LUC mRNA, Experiment No. 2: experiment 2; for Translation efficiency in comparison with m^7GpppG-LUC mRNA, Experiment No. 3: experiment 3; for Translation efficiency in comparison with m^7GpppG-LUC mRNA, Experiment No. 4: experiment 4; for Translation efficiency in comparison with m^7GpppG-LUC mRNA, Mean: mean of experiments; for In vitro translational efficiency, method I: relative to m^7GpppG-capped luciferase mRNA = 1.0
Protocol: A DNA template for in vitro transcription was synthesized by PCR from the plasmid SP6p-5′UTR β-globin-LUCiferase. The template contained the SP6 promoter followed by the 5′-UTR sequence of rabbit β-globin mRNA and the entire firefly luciferase mRNA coding region. A typical in vitro transcription reaction mixture (50 μl) contained SP6 transcription buffer (Fermentas, cat. no. EP0131), 2 μg of DNA template, 2 U/μl RiboLock Ribonuclease Inhibitor (Fermentas), 2 mM each of ATP, CTP, and UTP, 0.1 mM GTP, and 1 mM dinucleotide cap analog. The reaction mixture was incubated at 37° C. for 5 min before the addition of SP6 RNA polymerase (Fermentas) to a final concentration of 2 U/μl. After 30 min of incubation at 37° C., GTP was added to a final concentration of 1 mM, and the reaction continued for an additional 90 min. The reaction mixtures were then treated with 1 U of DNase RQ1 (RNAse-free, Promega) per μg of template DNA in transcription buffer at 37° C. for 20 min. RNA transcripts were purified on DEPC-treated Sephadex G-50 spin columns (Pharmacia). The integrity of transcripts was confirmed by electrophoresis on a non-denaturating, 1% agarose gel. Concentrations were determined spectrophotometrically. The transcripts were stored at −80° C. until used.
A micrococcal nuclease-treated rabbit reticulocyte lysate system (Flexi Rabbit Reticulocyte Lysate System, Promega) was used for in vitro translation. Translation reactions were performed in 10 μl for 60 min at 30° C. A typical reaction mixture contained 40% reticulocyte lysate, the 20 “standard” amino acids (0.01 mM each), MgCl2 (1.2 mM), potassium acetate (170 mM), and mRNA (five different concentrations of each transcript, ranging from 0.25 to 4 μg/ml). Luciferase activity was measured in a luminometer (Glomax, Promega). Linear regression was used to fit the data points (luciferase activity versus concentration of mRNA transcript), and translational efficiency was defined as the slope of this line. The relative translational efficiencies of the test mRNAs were compared to that of m^7GpppG-capped luciferase mRNA, the latter being defined as 1.0.

[3] = 40 μM cap analog, 30° C., up to 120 min

| Susceptibility to DcpS (Human DcpS; Table 3) | Stability in aqueous solution [1] | Translation efficiency in comparison with m^7GpppG-LUC mRNA, Experiment No. 1 ([2]; experiment 1) | Translation efficiency in comparison with m^7GpppG-LUC mRNA, Experiment No. 2 [2] | Translation efficiency in comparison with m^7GpppG-LUC mRNA, Experiment No. 3 [2] | Translation efficiency in comparison with m^7GpppG-LUC mRNA, Experiment No. 4 [2] | Translation efficiency in comparison with m^7GpppG-LUC mRNA, Mean [2] | In vitro translational efficiency, method I [2] | Susceptibility to DcpS (Human DcpS; [3]) | Molecule |
| --- | --- | --- | --- | --- | --- | --- | --- | --- | --- |
| hydrolyzed | stable in aqueous solution |  |  |  |  |  |  |  | CO[C@@H]1[C@H](O)[C@@H](COP(=O)(O)OP(O)(=[Se])OP(=O)(O)OC[C@H]2O[C@@H](n3cnc4c(=O)[nH]c(N)nc43)[C@H](O)[C@@H]2O)O[C@H]1n1c[n+](C)c2c(=O)[nH]c(N)nc21 (single isomer, unassigned) [m2^7,2′-OGppSepG (D1), m2^7,2′-OGppSepG] |
| hydrolyzed | stable in aqueous solution |  |  |  |  |  |  |  | CO[C@@H]1[C@H](O)[C@@H](COP(=O)(O)OP(O)(=[Se])OP(=O)(O)OC[C@H]2O[C@@H](n3cnc4c(=O)[nH]c(N)nc43)[C@H](O)[C@@H]2O)O[C@H]1n1c[n+](C)c2c(=O)[nH]c(N)nc21 (single isomer, unassigned) [m2^7,2′-OGppSepG (D2), m2^7,2′-OGppSepG] |
| hydrolyzed |  | 1.00 | 1.00 | 1.00 | 1.00 | 1.00 | 1.00 | hydrolyzed | Cn1c[n+]([C@@H]2O[C@H](COP(=O)(O)OP(=O)(O)OP(=O)(O)OC[C@H]3O[C@@H](n4cnc5c(=O)[nH]c(N)nc54)[C@H](O)[C@@H]3O)[C@@H](O)[C@H]2O)c2nc(N)[nH]c(=O)c21 [m^7GpppG, m^7G(5′)ppp(5′)G, reference compound] |
|  |  |  | 2.63 | 2.91 | 2.89 | 2.81 | 2.81 ± 0.16 | resistant | m^7GppBH3pm^7G |
